Test results from patent EP0158545A1, “[Alpha-(alkylaminomethyl)-benzylthio]-acetic-acid derivatives, process for their preparation and their therapeutic use” (priority 1984, dated 1985).

Legend:
souris mâle [1] = conditions: mouse, in vivo, ip
Description: (§1) On a résumé ci-après les résultats des essais neuropsychopharmacologiques qui ont été entrepris avec les produits préférés selon l'invention, le CRL 41 190 (Ex 1) et le CRL 41 214 (Ex 3). Dans ce résumé, les deux produits à tester mis en solution dans de l'eau distillée ont été administrés, sauf indiction contraire, par voie intrapéritonéale sous un volume de 20 ml/kg chez la souris mâle et sous un volume de 5 ml/kg chez le rat mâle. […]
La DL-0 (dose maximale non mortelle) du CRL 41 190 est supérieure à 128 mg/kg par voie I.P. chez la souris mâle, et la DL-30 est de l'ordre de 256 mg/kg.
Par voie I.P. chez la souris mâle, la DL-0 est supérieure à 256 mg/kg.

souris [2] = assay: Global behaviour and reactivities, mouse; assay type: in vivo; conditions: I.P.
Description: as §1
(§2) Des lots de trois animaux sont observés avant puis 0,25 h, 0,5, h, 1 h, 2 h, 3 h et 24 h après administration de CRL 41 190.

rat [3] = assay: Global behaviour and reactivities, rat; assay type: in vivo; conditions: I.P.
Description: as §1, §2

souris [4] = assay: Interaction with apomorphine, mouse; assay type: in vivo; conditions: product I.P. 0,50 h before s.c. apomorphine
Description: • 1°) chez la souris • Des lots de 6 souris reçoivent le produit à étudier 0,50 h avant une injection sous-cutanée de 1 mg/kg ou 16 mg/kg d'apomorphine.

rat [5] = assay: Interaction with apomorphine, rat; assay type: in vivo; conditions: product I.P. 0,50 h before s.c. 0,5 mg/kg apomorphine
rats = assay: Interaction with amphetamine (stereotypies), rat; assay type: in vivo; conditions: amphétamine 2 mg/kg I.P. half an hour after product, doses de 8 et 32 mg/kg
Description: L'amphétamine (2 mg/kg) est injectée par voie intrapéritonéale à des lots de 6 rats, une demi -heure après l'administration de CRL 41 190.

souris [6] = assay: Interaction with reserpine (hypothermia, ptosis), mouse; assay type: in vivo
Description: Quatre heures après l'injection intrapéritonéale de 2,5 mg/kg de réserpine, des lots de 12 souris reçoivent le CRL 41 190. On étudie l'influence du produit à tester sur l'hypothermie et le ptôsis réserpiniques.

souris [7] = assay: Interaction with oxotremorine, mouse; assay type: in vivo
souris [8] = assay: Four-plate test, traction and electroshock, mouse; assay type: in vivo
Description: Le test est pratiqué sur des lots de 10 souris 0,50 h après l'administration du produit à étudier.

souris [9] = assay: Spontaneous motility (actimeter), mouse; assay type: in vivo; conditions: souris, 0,5 h after I.P., recorded 30 minutes; plus forte dose utilisée (64 mg/kg)
souris [10] = assay: Intergroup aggressiveness, mouse; assay type: in vivo; conditions: half an hour after I.P., 10 minutes, plus forte dose utilisée (64 mg/kg)
Description: Après avoir séjourné pendant 3 semaines dans chacune des moitiés d'une cage séparées par une cloison opaque, des groupes de 3 souris reçoivent le CRL 41 190. Une demi-heure plus tard, les deux groupes d'une même cage sont réunis par retrait de la cloison et on note le nombre de combats qui surviennent en 10 minutes.

souris [11] = assay: Motility reduced by habituation to the enclosure, mouse; assay type: in vivo; conditions: I.P., after 18 heures in actimeter
souris [12] = assay: Asphyxic anoxia (gallamine triethiodide), mouse; assay type: in vivo; conditions: product I.P. half an hour before triiodoéthylate de gallamine 32 mg/kg I.P.
souris [13] = assay: Interaction with barbital (sleep duration), mouse; assay type: in vivo; conditions: barbital 220 mg/kg I.P. half an hour after product, plus forte dose utilisée (64 mg/kg)
souris [14] = assay: Behavioural despair (forced immersion), mouse; assay type: in vivo; conditions: half an hour after I.P., plus forte dose utilisée (64 mg/kg)
From the text: On note la durée totale d'immobilité entre la 2ème et la 6ème minutes suivant l'immersion.

souris mâle [15] = assay: Complementary neuropsychopharmacological tests by gastric route, mouse; assay type: in vivo; conditions: voie gastrique, 20 ml/kg in distilled water
Description: Des essais complémentaires ont été entrepris, le CRL 41 190 en solution dans de l'eau distillée étant administré par voie gastrique sous un volume de 20 ml/kg chez la souris mâle.

l'homme = assay: Clinical treatment of depression, oral administration; assay type: in vivo
souris [16] = conditions: half an hour after I.P., dépression de 600 mmHg
[17] = oxotrémorine 0,5 mg/kg I.P., dose de 64 mg/kg
[18] = souris, 0,50 h after I.P. administration

Structure (SMILES): CC(C)(C)NCC(SCC(N)=O)c1ccccc1 (racemic) [CRL 41 190, chlorhydratede [α-(tertiobutylamino-méthyl)-benzyl]-thioacétamide]
- DL-0 (dose maximale non mortelle) (souris mâle [1]): > 128 mg/kg
- DL-30 (souris mâle [1]): ~256 mg/kg
- comportement global et réactivités (souris [2]; dose de 1 mg/kg, observed 0,25 h to 24 h): aùcune modification nette du comportement et et des réactivités
- comportement global et réactivités (souris [2]; dose de 64 mg/kg): une augmentation de la réaction de peur pendant 1 h et de la réactivité au toucher de 0,5 h à 1 h, une sédation, et, une mydriase faible pendant 1 h
- comportement global et réactivités (souris [2]; doses de 4 et 16 mg/kg): une augmentation de la réaction de peur, d'υne part, et une augmentation de la réactivité au toucher pendant 0,5 h
- comportement global et réactivités (rat [3]; dose de 32 mg/kg): une mydriase pendant 1 h
- comportement global et réactivités (rat [3]; doses de 0,5 mg/kg à 8 mg/kg): un comportement, des réactivités, une variation de la température rectale, et une variation du diamètre pupillaire sensiblement comparables à ceux du lot témoin
- comportements de verticalisation et stéréotypies (apomorphine) (souris [4]): ne sont pratiquement pas modifiés
- hypothermie induite par 16 mg/kg d'apomorphine (souris [4]; dès la dose de 1 mg/kg): antagonise dès la dose de 1 mg/kg l'hypothermie induite par 16 mg/kg d'apomorphine
- hypothermie induite par 1 mg/kg d'apomorphine (souris [4]; plus forte dose utilisée (64 mg/k)): s'oppose à l'hypothermie induite par 1 mg/kg d'apomorphine
- stéréotypies induites par l'apomorphine (rat [5]): laisse inchangées les stéréotypies induites par l'apomorphine
- durée des stéréotypies amphétaminiques (rats): augmente nettement la durée des stéréotypies amphétaminiques
- hypothermie réserpinique (souris [6]; product 4 h after réserpine 2,5 mg/kg I.P., dès la dose de 4 mg/kg): antagonise l'hypothermie réserpinique
- ptôsis réserpinique (souris [6]; réserpine 2,5 mg/kg I.P., 16 mg/kg et 64 mg/kg, from half an hour after administration): antagonise faiblement le ptôsis réserpinique
- hypothermie réserpinique (souris [6]; réserpine 2,5 mg/kg I.P., deux plus fortes doses (16 mg/kg et 64 mg/kg)): Cet antagonisme est très net
- signes de stimulation cholinergique périphérique dûs à l'oxotrémorine (souris [7]; oxotrémorine 0,5 mg/kg I.P., aux autres doses (below 64 mg/kg)): ne modifie pratiquement pas les signes de stimulation cholinergique péripherique dûs à l'oxotrémorine
- intensité des tremblements dûs à l'oxotrémorine (souris [7]; [17]): diminue faiblement l'intensité des tremlblements dûs à l'oxotrémorine
- salivation (symptômes cholinergiques périphériques) (souris [7]; [17]): diminue faiblement la salivation entre les 1,5 h et 2 h qui suivent son administration
- hypothermie induite par l'oxotrémorine (souris [7]; oxotrémorine 0,5 mg/kg I.P., doses de 4 mg/kg, 16 mg/kg et surtout 64 mg/kg): Cet antagonisme est net
- hypothermie induite par l'oxotrémorine (souris [7]; product half an hour before oxotrémorine 0,5 mg/kg I.P., dès la dose de 1 mg/kg): s'oppose à l'hypothermie induite par l'oxotrémorine
- effets convulsivants de l'électrochoc (souris [8]; [18]): ne modifie pas les effets convulsivants
- incapacité motrice (traction) (souris [8]; [18]): ne provoque pas d'incapacité motrice majeure
- nombre de passages punis (test des quatre plaques) (souris [8]; [18]): n'entraîne pas d'augmentation du nombre de passages punis
- effets létaux de l'électrochoc (souris [8]; souris, I.P., dose de 64 mg/kg): aggrave, à la dose de 64 mg/kg, les effets létaux de l'électrochoc
- activité motrice spontanée (souris [9]): ne modifie pratiquement pas l'activité motrice spontanée de la souris
- nombre de combats (souris [10]): augmente modérément le nombre de combats
- reprise d'activité motrice chez la souris habituée à son enceinte (souris [11]): n'entraîne pas de reprise d'activité motrice chez la souris habituée à son enceinte
- délai d'apparition des convulsions et de la mort consécutives à une anoxie asphyxique (souris [12]): ne modifie pas le délai d'apparition des convulsions et de la mort
- durée du sommeil barbiturique (souris [13]): diminue la durée du sommeil barbiturique
- durée de l'immobilité de la souris placée en immersion forcée (souris [14]): diminue nettement la durée de l'immobilité de la souris placée en immersion forcée
- overall CNS profile by gastric route (souris mâle [15]): agit essentiellement en tant qu'antidépresseur avec, à fortes doses, une composante éveillante et stimulante très modérée
- traitement des dépressions chez l'homme (l'homme; administration orale, gélules ou comprimés 25 mg ou 50 mg, 1 à 2 prises par jour, deux à trois semaines): bons résultats
- propriétés antidépressives chez les personnes agées (l'homme; clinical, oral): se manifestaient de façon très bénéfique chez les personnes agées
- récupération motrice après anoxie hypobare aigue (souris [16]): n'entraîne pas d'amélioration de la récupération motrice
